How the values were obtained:
[1] = biological target: T1, motilin receptor preparation (Human antrum tissue) (Homo sapiens, UniProt O43193); experiment: 125I-motilin binding to human antral stomach membranes; set-up: % Inh (Human antrum): dose or concentration left out as unconfirmed; details: for inhibition at 1 µM: read-out: Human Antrum % Inh @1 μM
T1 construct: Human antrum tissue from Analytical Biological Services (Wilmington, Del.) was prepared as a motilin receptor preparation; tissue Analytical Biological Services (Wilmington, Del.); host or cells: human antrum (stomach) muscle tissue, crude membrane homogenate
T1 sequence (O43193 whole entry): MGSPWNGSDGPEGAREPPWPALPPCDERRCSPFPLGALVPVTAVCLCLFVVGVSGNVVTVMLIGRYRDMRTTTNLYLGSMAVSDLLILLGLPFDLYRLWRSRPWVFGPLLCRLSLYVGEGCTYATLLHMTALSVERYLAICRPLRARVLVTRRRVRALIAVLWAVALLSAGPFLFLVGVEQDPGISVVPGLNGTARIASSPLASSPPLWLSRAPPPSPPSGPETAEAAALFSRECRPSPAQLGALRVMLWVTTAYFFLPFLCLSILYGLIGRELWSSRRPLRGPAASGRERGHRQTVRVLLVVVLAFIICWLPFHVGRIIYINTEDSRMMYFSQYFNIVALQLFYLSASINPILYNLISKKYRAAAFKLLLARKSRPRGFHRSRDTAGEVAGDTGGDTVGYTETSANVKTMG
Procedure: Human antrum tissue from Analytical Biological Services (Wilmington, Del.) was prepared as a motilin receptor preparation in the following manner. The muscle tissue was homogenized in 10 volumes of 50 mM Tris-Cl, 10 mM MgCl2, 0.1 mg/ml bacitracin, and 0.25 mM Peflabloc, pH 7.5) in a Polytron (29000 rpm, 4×15 seconds). The homogenate was centrifuged at 1000×g for 15 minutes and the supernatant discarded. The pellet was washed twice before being suspended in homogenizing buffer. The crude homogenate was resuspended through a 23 gauge needle before aliquoting and storing at −80° C. The human cloned receptor was prepared from HEK 293 cells overexpressed with the motilin receptor. Cell pellets were thawed and resuspended in 2–3 volumes of homogenizing buffer (10 mM Tris-Cl, 0.2 mM MgCl2, 5 mM KCl, 5 μg/ml aprotinin, leupeptin, and pepstatin A, and 50 μg/ml bacitracin, pH 7.5) and allowed to sit on ice for 15–20 minutes. The suspension was homogenized on ice in a Dounce type homogenizer using 15 strokes. Sucrose and EDTA were added to a final concentration of 0.25M and 1 mM, respectively, and mixed with a few additional strokes. The material was centrifuged at 400×g for 5 minutes, and the supernatant saved. The pellet was re-resuspended twice with 5 ml homogenizing buffer and rehomogenized as before, and the supernatants combined. The supernatant was centrifuged at 100000×g for 1 hour. The pellet is retained and resuspended with 5 ml of homogenizing buffer through a 19 g and 25 g needle. The suspension is aliquoted and stored at −80° C. until used. The binding assay contains the following components (50 mM HEPES, 5 mM MgCl2, and 1 mM EGTA, pH 7.0, 15 mg/ml BSA, 10 μg/ml aprotinin, leupeptin, and pepstatin A, 0.25 mg/ml bacitracin, and 10 mM benzamidine), ^125I-radiolabelled porcine motilin (50000–70000 cpm; specific activity 2000 Ci/mmol), test compound, and membrane protein. After 60 minutes at 30° C., the samples are placed on ice and centrifuged for 1 minute at 13000×g. The pellet is washed twice with 1 ml cold saline, and after removal of the final supernatant, the pellet at the bottom of the tube is counted in a gamma counter. Non-specific binding is measured by the inclusion of 1 μM unlabelled motilin. IC50 values were determined from Kaleidograph curves.
125I-Motilin Binding to Human Antral Stomach Membranes and the Human Cloned Receptor: […]

[2] = biological target: T2, human cloned receptor (motilin receptor) (Homo sapiens, UniProt O43193); experiment: 125I-motilin binding to human cloned receptor (HEK 293 cells overexpressed with the motilin receptor); details: HEK 293 membranes
T2 construct: expressed in transfected cells; host or cells: HEK 293 cells
T2 sequence (O43193 whole entry): as above
Procedure: Human antrum tissue from Analytical Biological Services (Wilmington, Del.) was prepared as a motilin receptor preparation in the following manner. The muscle tissue was homogenized in 10 volumes of 50 mM Tris-Cl, 10 mM MgCl2, 0.1 mg/ml bacitracin, and 0.25 mM Peflabloc, pH 7.5) in a Polytron (29000 rpm, 4×15 seconds). The homogenate was centrifuged at 1000×g for 15 minutes and the supernatant discarded. The pellet was washed twice before being suspended in homogenizing buffer. The crude homogenate was resuspended through a 23 gauge needle before aliquoting and storing at −80° C. The human cloned receptor was prepared from HEK 293 cells overexpressed with the motilin receptor. Cell pellets were thawed and resuspended in 2–3 volumes of homogenizing buffer (10 mM Tris-Cl, 0.2 mM MgCl2, 5 mM KCl, 5 μg/ml aprotinin, leupeptin, and pepstatin A, and 50 μg/ml bacitracin, pH 7.5) and allowed to sit on ice for 15–20 minutes. The suspension was homogenized on ice in a Dounce type homogenizer using 15 strokes. […] The pellet is washed twice with 1 ml cold saline, and after removal of the final supernatant, the pellet at the bottom of the tube is counted in a gamma counter. Non-specific binding is measured by the inclusion of 1 μM unlabelled motilin. IC50 values were determined from Kaleidograph curves. […]

[3] = biological target: T3, Motilin Receptor (Oryctolagus cuniculus, UniProt G1T803); experiment: Motilin receptor binding, rabbit colon membranes, 125I porcine motilin; set-up: Rabbit Colon % Inh / inhibition / % Inh (Rabbit colon): dose or concentration left out as unconfirmed; details: rabbit colon membranes
T3 construct: The muscle tissue was homogenized in 10 volumes of 50 mM Tris-Cl; from tissue; host or cells: rabbit colon smooth muscle, crude membrane homogenate
T3 sequence (G1T803 1-400): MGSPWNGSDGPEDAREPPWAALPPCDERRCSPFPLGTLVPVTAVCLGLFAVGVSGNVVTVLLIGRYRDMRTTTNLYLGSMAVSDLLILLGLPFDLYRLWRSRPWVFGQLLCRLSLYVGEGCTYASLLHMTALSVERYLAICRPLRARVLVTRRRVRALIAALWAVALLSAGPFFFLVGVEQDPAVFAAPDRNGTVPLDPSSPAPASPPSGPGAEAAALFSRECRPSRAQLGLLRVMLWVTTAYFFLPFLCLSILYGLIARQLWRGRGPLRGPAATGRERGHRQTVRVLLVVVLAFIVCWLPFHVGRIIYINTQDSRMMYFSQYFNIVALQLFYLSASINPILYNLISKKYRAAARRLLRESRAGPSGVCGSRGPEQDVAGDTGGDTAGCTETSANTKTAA

[4] = test system: motilin induced contraction; experiment: Rabbit tissue bath procedure: inhibition of motilin induced contraction of duodenum segments; set-up: species or system New Zealand White rabbit; details: 3 nM porcine motilin induced contraction, read-out: Tissues IC50
Procedure: Rabbit Tissue Bath Procedure
One New Zealand White rabbit (Covance) of either sex was euthanized with an IV injection of Sleepaway. The duodenum was quickly excised, the lumen rinsed with saline to clean, and the tissue placed in cold, aerated (95% O2–5% CO2) Tyrodes buffer (NaCl 136.9 mM, KCl 2.7 mM, CaCl2 1.8 mM, MgCl2 1.04 mM, NaH2PO4 0.42 mM, NaHCO3 11.9 mM, Glucose 5.55 mM, pH 7.4). The duodenum, being kept moist at all times, was cleaned of any excess mesenteric tissue, and then cut into 3 cm segments starting at the proximal end. Sixteen tissue segments were usually prepared from each duodenum. These segments were tied on both ends with 3-0 silk suture (Ethicon). One end of the tissue was attached to an S-hook on a custom made glass support rod (Crown Glass Co., Somerville) and the rod plus tissue were placed in a 15 ml isolated tissue bath (Radnoti). The other end of the glass rod was attached to a Grass Force Displacement Transducer FT03. The tissue was maintained in room temperature Tyrodes buffer pH 7.4 and continually gassed with 95% O2— 5% CO2. The tissues were adjusted to 1.0 g resting tension and maintained at that tension throughout the equilibration period. An Ml2 Tissue Bath Computer was used to record and analyze data.
The tissues were washed twice during a 30 minute equilibration period and readjusted to 1 g resting tension as necessary. After equilibration the tissues were challenged with 3 μM Carbachol (Carbamoylcholine Chloride-Sigma). After maximal contraction was attained, the tissues were washed 3 times with Tyrodes. The tissues were allowed a 20 minute resting/equilibration period, during which time they were washed once and readjusted to 1 g resting tension. The tissues were challenged a second time with 3 μM Carbachol, and this contraction was considered as maximal, or 100% contraction. The tissues were washed 3 times, equilibrated for 10 minutes, washed again and readjusted to 1 g resting tension. Vehicle or test compound in 30% DMSO-50 mM HEPES was added directly to the bath and the tissues were incubated for 20 minutes. Test compounds and vehicle were run in duplicate.
The percent inhibition by test compound of the motilin induced contraction was calculated by first determining the ratio of the vehicle contractions with Motilin compared to the Carbachol contractions. This Tissue Adjustment Factor (TAF) was used to determine the value for the potential uninhibited contraction with Motilin for each tissue. The percent inhibition was then determined by dividing the actual Motilin contraction in treated tissues by the potential uninhibited contraction and subtracting this number from 1. IC50 values were determined by graphing results with Kaleidograph graphing program.

Human Antrum % Inh @1 μM ([1]; human antrum membranes) [%] | inhibition at 1 µM ([1]; human antrum membranes) [%] | IC50 ([1]; human antrum membranes) [nM] | SMILES | also measured
– | – | – | CC[C@H](C)[C@H](NC(=O)[C@@H]1CCCN1C(=O)[C@@H](NC(=O)[C@@H](N)Cc1ccccc1)C(C)C)C(=O)N[C@@H](Cc1ccccc1)C(=O)N[C@H](C(=O)N[C@@H](Cc1ccc(O)cc1)C(=O)NCC(=O)N[C@@H](CCC(=O)O)C(=O)N[C@@H](CC(C)C)C(=O)N[C@@H](CCC(N)=O)C(=O)N[C@@H](CCCNC(=N)N)C(=O)N[C@@H](CCSC)C(=O)N[C@@H](CCC(N)=O)C(=O)N[C@@H](CCC(=O)O)C(=O)N[C@@H](CCCCN)C(=O)N[C@@H](CCC(=O)O)C(=O)N[C@@H](CCCNC(=N)N)C(=O)N[C@@H](CC(N)=O)C(=O)N[C@@H](CCCCN)C(=O)NCC(=O)N[C@@H](CCC(N)=O)C(=O)O)[C@@H](C)O [Motilin] | IC50 ([1]; 125I-Motilin binding to human antral stomach membranes): 1 ± 0.1 nM; IC50 [2]: 3.55 ± 0.05 nM
– | – | – | O=C(c1ccc(F)cc1)N(CC1CCCC(N(Cc2ccccc2)C(=O)C(Cl)(Cl)Cl)C1)c1cccc(OCCN2CCCC2)c1 (centres unmarked) [compound 213] | inhibition ([3]; read-out: Rabbit Colon % Inh): 84%; IC50 ([3]; read-out: Rabbit Colon IC50): 58 nM; IC50 [4]: 27 nM
100 | – | – | CC(C)(C)C(=O)N(Cc1ccccc1)C1CCC(CN(C(=O)c2ccc(F)cc2)c2cccc(OCCN3CCCC3)c2)C1 (centres unmarked) [compound 216] | –
98 | – | – | CC(C)(C)C(=O)N(Cc1cccc(Cl)c1)C1CCC(CN(C(=O)c2ccc(F)cc2)c2cccc(OCCN3CCCC3)c2)C1 (centres unmarked) [compound 217] | –
– | 98 | – | O=C(c1ccc(F)cc1)N(C[C@H]1CC[C@@H](N(Cc2ccccc2)C(=O)C(Cl)(Cl)Cl)C1)c1cccc(OCCN2CCCC2)c1 [compound 218] | IC50 [4]: 35 nM
98 | – | 7.6 | O=C(c1ccc(F)cc1)N(CC1CCC(N(Cc2cccc([N+](=O)[O-])c2)C(=O)C(Cl)(Cl)Cl)C1)c1cccc(OCCN2CCCC2)c1 (centres unmarked) [compound 219] | –
– | 92 | – | CC(C)(C)C(=O)N(Cc1ccc(F)c(F)c1)[C@@H]1CC[C@H](CN(C(=O)c2ccc(F)cc2)c2cccc(OCCN3CCCC3)c2)C1 [compound 220] | –
94 | – | – | CC(C)(C)C(=O)N(Cc1ccccc1)C1C=CC(CN(C(=O)c2ccc(F)cc2)c2cccc(OCCN3CCCC3)c2)C1 (centres unmarked) [compound 221] | –
– | – | – | O=C(c1ccc(F)cc1)N(CC1CCCC(N(Cc2ccccc2)Cc2ccccc2)C1)c1cccc(OCCN2CCCC2)c1 (centres unmarked) [compound 222] | % Inh (Rabbit colon) ([3]; 125I porcine motilin binding): 83%; % Inh (Human antrum) ([1]; human antrum membranes, 125I porcine motilin binding): 83%
– | 100 | 32 | CC(C)(C)C(=O)N(Cc1cccc(Cl)c1)C1CCCC(CN(C(=O)c2ccc(F)cc2)c2cccc(OCCN3CCCC3)c2)C1 (centres unmarked) [compound 226] | IC50 [4]: 9 nM
– | 100 | 25 | CC(C)(C)C(=O)N(Cc1ccc(Cl)c(Cl)c1)C1CCCC(CN(C(=O)c2ccc(F)cc2)c2cccc(OCCN3CCCC3)c2)C1 (centres unmarked) [compound 227] | –
– | 100 | 25 | CC(C)(C)C(=O)N(Cc1ccc(F)c(F)c1)C1CCCC(CN(C(=O)c2ccc(F)cc2)c2cccc(OCCN3CCCC3)c2)C1 (centres unmarked) [compound 228] | –
88 | – | – | O=C(c1ccc(F)cc1)N(C[C@H]1CC[C@@H](N(Cc2ccccc2)C(=O)C(Cl)(Cl)Cl)C1)c1cccc(OCCN2CCCC2)c1 [compound 231] | –

Source: patent US7112586B2, “Substituted diamine derivatives useful as motilin antagonists” (Ortho-McNeil Pharmaceutical, Inc., priority 2000, dated 2006)
